From ChEMBL document CHEMBL1201862, “PubChem BioAssay data set” (2004) come the findings set out here.

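How tested: cells in 96-well plates exposed to compound for 48 hours at five concentrations. Abbreviation: GI50, concentration required for 50% inhibition of growth.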 Activity calls are given as the source filed them. No stated cut-off is given here; in the data, active = GI50 up to about 1.1 µM and inactive = higher.

Test systems include CCRF-CEM; OVCAR-4; ACHN; 786-0; TK-10; COLO 205; SF-295; SNB-75; OVCAR-5; UO-31; A549; HT-29; UACC-257; MOLT-4; OVCAR-8; HCT-116; HCC 2998; NCI-H522.
Holding throughout (experiment): NCI anticancer screen, dose series, 48 h

Regarding `CN(C)CCNC(=O)Cc1ccccc1Nc1c(Cl)cccc1Cl`, the GI50 in the test on CCRF-CEM was 14.3 µM (inactive); in the test on OVCAR-4 it was 20.1 µM (inactive); in the test with ACHN it was 19 µM (inactive); with 786-0 it was 12.2 µM (inactive); in the test with TK-10, 13.7 µM (inactive); in the test with COLO 205, 16.4 µM (inactive). Also, the GI50 in the test on SF-295 was 16 µM (inactive); in the test with SNB-75, 12.7 µM (inactive); with OVCAR-5, 11.7 µM (inactive); with UO-31 it was 12.6 µM (inactive); in the test on A549, 18 µM (inactive); with HT-29, 10.3 µM (inactive). For the same compound, the GI50 in the test with UACC-257 was 12.8 µM (inactive); in the test with MOLT-4, 16 µM (inactive); in the test on OVCAR-8 it was 18.9 µM (inactive); in the test on HCT-116, 17.2 µM (inactive); with HCC 2998 it was 11.5 µM (inactive).

With `Cc1ccc(NC(=O)CCC(=O)C(C#N)c2ccc(Cl)cc2)cc1C` (configuration not stated), the GI50 with CCRF-CEM, with OVCAR-4, in the test with ACHN, in the test with 786-0, in the test with NCI-H522 and with TK-10 was > 100 µM (inactive) each time. For the same compound, the GI50 in the test on SF-295, in the test on SNB-75, with OVCAR-5, in the test with UO-31, in the test with A549 and with HT-29 was > 100 µM (inactive) in each case. Besides, the GI50 in the test on UACC-257, in the test with MOLT-4, in the test with OVCAR-8, in the test with HCT-116 and with HCC 2998 was > 100 µM (inactive) in each case.

Regarding `O=c1[nH]cc(C(F)(C(F)(F)F)C(F)(F)F)c(=O)[nH]1`, the GI50 in the test on CCRF-CEM, in the test on OVCAR-4, with ACHN, in the test on 786-0, in the test on NCI-H522 and in the test on TK-10 was > 100 µM (inactive) each time. Further, the GI50 with COLO 205, with SF-295, in the test with SNB-75, with OVCAR-5, in the test on UO-31 and in the test on A549 was > 100 µM (inactive) in each case. For the same compound, the GI50 in the test with HT-29, in the test with UACC-257, in the test with MOLT-4, in the test on OVCAR-8 and with HCT-116 was > 100 µM (inactive) each time.

In the case of `c1ccc(Nc2nnc(CSc3nc(-c4ccccc4)c(-c4ccccc4)[nH]3)s2)cc1`, the GI50 in the test with CCRF-CEM was 15.5 µM (inactive); in the test with OVCAR-4, 27 µM (inactive); in the test with ACHN, 26.3 µM (inactive); in the test with 786-0 it was 18.2 µM (inactive); in the test with NCI-H522, 17.2 µM (inactive); with TK-10 it was 26.1 µM (inactive). Moreover, the GI50 in the test on COLO 205 was 12.3 µM (inactive); with SF-295, 18.6 µM (inactive); in the test with SNB-75, 44.4 µM (inactive); in the test on OVCAR-5, 21.3 µM (inactive); with UO-31 it was 13.3 µM (inactive); in the test on A549, 28.4 µM (inactive). The GI50 with HT-29 is 15.2 µM (inactive); in the test with UACC-257, 20.5 µM (inactive); in the test on MOLT-4 it was 10.1 µM (inactive); in the test on OVCAR-8 it was 23 µM (inactive); in the test with HCT-116, 17.2 µM (inactive).

For `COc1ccc(SS(=O)(=O)c2ccc(OC)cc2)cc1`, the GI50 in the test on CCRF-CEM is 2.64 µM (inactive); with ACHN it was 18.4 µM (inactive); with 786-0, 17.2 µM (inactive); with NCI-H522 it was 15.3 µM (inactive); with TK-10, 23.3 µM (inactive); in the test with COLO 205, 17.9 µM (inactive). Also, the GI50 in the test on SF-295 is 19.5 µM (inactive); with SNB-75 it was 23.2 µM (inactive); in the test with OVCAR-5, 30 µM (inactive); with UO-31, 13.9 µM (inactive); in the test with A549, 24.4 µM (inactive); in the test on HT-29, 32.1 µM (inactive). Further, the GI50 was 22.9 µM (inactive) in the test with UACC-257; 13.2 µM (inactive) with MOLT-4; 16.6 µM (inactive) in the test on OVCAR-8; 16.1 µM (inactive) with HCT-116; 13.6 µM (inactive) with HCC 2998.

Consider `C[C@@H]1C(=O)CC2C(C)(C)CCC[C@]2(C)[C@@]12CC[C@]1(C=COC1)O2` (some centres not stated), for which the GI50 is 23.4 µM (inactive) with CCRF-CEM; 43.8 µM (inactive) in the test on OVCAR-4; 32.5 µM (inactive) in the test with ACHN; 33.3 µM (inactive) in the test with 786-0; 19.2 µM (inactive) in the test with NCI-H522; 32.3 µM (inactive) in the test with COLO 205. The GI50 was 36.6 µM (inactive) with SF-295; > 100 µM (inactive) with OVCAR-5; 29.9 µM (inactive) with UO-31; 36.1 µM (inactive) in the test with A549; 28.2 µM (inactive) in the test with HT-29; 16 µM (inactive) in the test on MOLT-4. Also, the GI50 with OVCAR-8 is 27.9 µM (inactive); in the test with HCT-116 it was 30.2 µM (inactive); in the test on HCC 2998, 38.1 µM (inactive).

As to `COC(=O)c1c[nH]cc1CCc1c[nH]cc1C(=O)OC`, the GI50 was > 100 µM (inactive) with CCRF-CEM; > 100 µM (inactive) in the test with OVCAR-4; > 100 µM (inactive) in the test with ACHN; > 100 µM (inactive) in the test with 786-0; 58.1 µM (inactive) in the test on NCI-H522; > 100 µM (inactive) in the test with TK-10. In addition, the GI50 with COLO 205, in the test with SF-295, with OVCAR-5, with A549, in the test with HT-29 and in the test with UACC-257 was > 100 µM (inactive) each time. The GI50 in the test with MOLT-4, in the test on OVCAR-8, in the test on HCT-116 and in the test on HCC 2998 was > 100 µM (inactive) each time.

Take `CC1=C(C(=O)Nc2ccc([N+](=O)[O-])cc2)C(c2ccc3c(c2)OCO3)C(C(=O)Nc2ccc([N+](=O)[O-])cc2)=C(C)N1`: the GI50 is 10.6 µM (inactive) in the test with OVCAR-4; 10.1 µM (inactive) with ACHN; 14.1 µM (inactive) in the test with 786-0; 24.1 µM (inactive) in the test with NCI-H522; 4.13 µM (inactive) in the test on COLO 205; 8.34 µM (inactive) in the test on SF-295. The GI50 in the test on SNB-75 is 6.18 µM (inactive); in the test with OVCAR-5, 59.7 µM (inactive); with UO-31, 6.4 µM (inactive); with A549, 24.2 µM (inactive); in the test with HT-29 it was 6.95 µM (inactive); in the test on UACC-257 it was 5.6 µM (inactive). The GI50 with MOLT-4 is 0.321 µM (active); with OVCAR-8, 3.16 µM (inactive); with HCT-116 it was 10.1 µM (inactive); in the test with HCC 2998, 7.05 µM (inactive).

For the compound `CC(C)NCC(O)COC(=O)c1cccs1` (configuration not stated), the GI50 with CCRF-CEM, in the test on OVCAR-4, in the test on ACHN, in the test on 786-0, in the test on NCI-H522 and in the test on TK-10 was > 100 µM (inactive) throughout. The GI50 with COLO 205 is > 100 µM (inactive); in the test with SF-295, > 10 µM (inactive); in the test on SNB-75, 67.8 µM (inactive); with OVCAR-5 it was > 100 µM (inactive); in the test with UO-31 it was > 100 µM (inactive); in the test with A549 it was > 100 µM (inactive). For the same compound, the GI50 in the test on HT-29, with UACC-257, in the test with MOLT-4, with OVCAR-8 and in the test on HCC 2998 was > 100 µM (inactive) in each case.

Consider `Cc1cc(=O)oc2cc(OCCCOc3ccc4c(C)cc(=O)oc4c3)ccc12`, for which the GI50 in the test on CCRF-CEM is > 100 µM (inactive); in the test with OVCAR-4 it was > 100 µM (inactive); in the test on ACHN it was > 100 µM (inactive); in the test with 786-0, 59.8 µM (inactive); in the test on TK-10, > 100 µM (inactive); in the test on COLO 205 it was > 100 µM (inactive). Also, the GI50 in the test on SF-295 was > 100 µM (inactive); with SNB-75, 38.6 µM (inactive); with UO-31, > 100 µM (inactive); in the test with A549 it was > 100 µM (inactive); in the test with HT-29, > 100 µM (inactive); in the test with UACC-257 it was > 100 µM (inactive). In addition, the GI50 in the test on MOLT-4, with OVCAR-8, in the test on HCT-116 and with HCC 2998 was > 100 µM (inactive) each time.

In the case of `Cn1nc(-c2ccccc2)c(C(=O)/C=C/c2ccc(F)cc2)c(N2CCCCC2)c1=O`, the GI50 with CCRF-CEM is 2.61 µM (inactive); with ACHN, 12.7 µM (inactive); in the test with 786-0, 4.62 µM (inactive); with NCI-H522, 5.9 µM (inactive); with TK-10, 17.8 µM (inactive); with COLO 205 it was 4.12 µM (inactive). In addition, the GI50 in the test on UO-31 was 5.58 µM (inactive); in the test on A549, 5.13 µM (inactive); in the test with HT-29, 5.32 µM (inactive); with MOLT-4, 2.63 µM (inactive); with OVCAR-8 it was 5.81 µM (inactive); with HCT-116, 3.31 µM (inactive).

`O=C(O)CN(c1ccccc1)S(=O)(=O)c1ccc(NC(=O)c2ccccc2)cc1`: the GI50 with CCRF-CEM, with OVCAR-4, in the test with ACHN, with 786-0, with NCI-H522 and with TK-10 was > 100 µM (inactive) throughout. Also, the GI50 in the test with COLO 205 was > 100 µM (inactive); with SNB-75, > 100 µM (inactive); in the test on OVCAR-5, > 100 µM (inactive); in the test with UO-31 it was > 100 µM (inactive); with A549, > 100 µM (inactive); in the test with HT-29, > 10 µM (inactive). Moreover, the GI50 in the test on UACC-257, in the test on MOLT-4 and in the test on OVCAR-8 was > 100 µM (inactive) in each case.
